In patent US11912703B2, “6-azaindole compounds” (BRISTOL-MYERS SQUIBB COMPANY, priority 2017, dated 2024):
Where two headings read alike, the source gives them in different places.

Assays:
human TLR7 = human TLR7 (Homo sapiens (Human), UniProt Q9NYK1); assay: TLR7 inhibition reporter assay (HEK-Blue SEAP); assay type: cell-based; conditions: HEK-Blue cells overexpressing human TLR7, gardiquimod 7.5 μM stimulation
human TLR8 = human TLR8 (Homo sapiens (Human), UniProt Q9NR97); assay: TLR8 inhibition reporter assay (HEK-Blue SEAP);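 also: SEAP driven by IFN-β minimal promoter with five NF-κB and AP-1 sites, compounds tested 0.05 nM to 50 µM, 22 h incubation, inhibition relative to agonist plus DMSO wells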
human TLR9 = human TLR9 (Homo sapiens (Human), UniProt Q9NR96); assay: TLR9 inhibition reporter assay (HEK-Blue SEAP);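 also: SEAP driven by IFN-β minimal promoter carrying five NF-κB and AP-1 sites, 22 h at 37 °C, compounds 0.05 nM–50 µM, inhibition scaled between agonist-plus-DMSO and reference-inhibitor wells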
Protocol: HEK-Blue™-cells (Invivogen) overexpressing human TLR7, TLR8 or TLR9 receptors were used for screening inhibitors of these receptors using an inducible SEAP (secreted embryonic alkaline phosphatase) reporter gene under the control of the IFN-β minimal promoter fused to five NF-κB and AP-1-binding sites. Briefly, cells are seeded into Greiner 384 well plates (15000 cells per well for TLR7, 20,000 for TLR8 and 25,000 for TLR9) and then treated with test compounds in DMSO to yield a final dose response concentration range of 0.05 nM-50 μM. After a 30 minute compound pre-treatment at room temperature, the cells are then stimulated with a TLR7 ligand (gardiquimod at a final concentration of 7.5 μM), TLR8 ligand (R848 at a final concentration of 15.9 μM) or TLR9 ligand (ODN2006 at a final concentration of 5 nM) to activate NF-κB and AP-1 which induce the production of SEAP. After a 22 hour incubation at 37° C., 500 CO2, SEAP levels are determined with the addition of HEK-Blue™ Detection reagent (Invivogen), a cell culture medium that allows for detection of SEAP, according to manufacturer's specifications.

[1] = read-out: TLR8 IC50; HEK-Blue cells overexpressing human TLR8, R848 15.9 μM stimulation, SEAP reporter
[2] = read-out: TLR9 IC50; HEK-Blue cells overexpressing human TLR9, ODN2006 5 nM stimulation, SEAP reporter
[3] = read-out: TLR8 IC50; HEK-Blue cells overexpressing human TLR8; R848 15.9 μM stimulation; SEAP reporter
[4] = read-out: TLR9 IC50; HEK-Blue cells overexpressing human TLR9; ODN2006 5 nM stimulation; SEAP reporter

Chain of human TLR7 (Q9NYK1 27-1049): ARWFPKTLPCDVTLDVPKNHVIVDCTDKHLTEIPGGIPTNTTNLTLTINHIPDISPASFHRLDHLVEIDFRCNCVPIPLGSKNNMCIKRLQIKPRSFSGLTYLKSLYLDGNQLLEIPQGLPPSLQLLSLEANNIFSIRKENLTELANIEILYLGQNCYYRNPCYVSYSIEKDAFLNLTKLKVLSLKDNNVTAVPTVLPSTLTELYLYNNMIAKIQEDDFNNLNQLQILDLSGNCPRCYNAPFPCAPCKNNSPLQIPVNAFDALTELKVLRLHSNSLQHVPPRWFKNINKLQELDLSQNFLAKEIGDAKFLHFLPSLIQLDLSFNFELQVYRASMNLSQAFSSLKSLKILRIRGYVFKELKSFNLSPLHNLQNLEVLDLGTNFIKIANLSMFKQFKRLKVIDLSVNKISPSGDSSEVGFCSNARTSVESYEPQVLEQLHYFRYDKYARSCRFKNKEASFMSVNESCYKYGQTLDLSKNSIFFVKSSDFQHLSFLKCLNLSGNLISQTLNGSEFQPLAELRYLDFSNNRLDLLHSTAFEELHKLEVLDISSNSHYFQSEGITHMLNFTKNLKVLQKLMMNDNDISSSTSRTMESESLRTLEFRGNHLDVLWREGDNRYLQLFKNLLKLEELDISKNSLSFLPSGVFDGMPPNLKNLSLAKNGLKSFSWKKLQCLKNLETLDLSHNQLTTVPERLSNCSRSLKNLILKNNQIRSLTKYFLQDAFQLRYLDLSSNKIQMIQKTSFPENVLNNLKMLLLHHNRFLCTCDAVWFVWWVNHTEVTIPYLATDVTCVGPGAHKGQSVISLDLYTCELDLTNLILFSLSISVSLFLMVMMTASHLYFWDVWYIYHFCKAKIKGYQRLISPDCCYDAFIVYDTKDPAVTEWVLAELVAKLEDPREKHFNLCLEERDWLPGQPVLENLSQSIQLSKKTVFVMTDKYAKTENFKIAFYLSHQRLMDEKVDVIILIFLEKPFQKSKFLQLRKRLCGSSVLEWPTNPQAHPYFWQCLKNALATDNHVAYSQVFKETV
Chain of human TLR8 (Q9NR97 27-1041): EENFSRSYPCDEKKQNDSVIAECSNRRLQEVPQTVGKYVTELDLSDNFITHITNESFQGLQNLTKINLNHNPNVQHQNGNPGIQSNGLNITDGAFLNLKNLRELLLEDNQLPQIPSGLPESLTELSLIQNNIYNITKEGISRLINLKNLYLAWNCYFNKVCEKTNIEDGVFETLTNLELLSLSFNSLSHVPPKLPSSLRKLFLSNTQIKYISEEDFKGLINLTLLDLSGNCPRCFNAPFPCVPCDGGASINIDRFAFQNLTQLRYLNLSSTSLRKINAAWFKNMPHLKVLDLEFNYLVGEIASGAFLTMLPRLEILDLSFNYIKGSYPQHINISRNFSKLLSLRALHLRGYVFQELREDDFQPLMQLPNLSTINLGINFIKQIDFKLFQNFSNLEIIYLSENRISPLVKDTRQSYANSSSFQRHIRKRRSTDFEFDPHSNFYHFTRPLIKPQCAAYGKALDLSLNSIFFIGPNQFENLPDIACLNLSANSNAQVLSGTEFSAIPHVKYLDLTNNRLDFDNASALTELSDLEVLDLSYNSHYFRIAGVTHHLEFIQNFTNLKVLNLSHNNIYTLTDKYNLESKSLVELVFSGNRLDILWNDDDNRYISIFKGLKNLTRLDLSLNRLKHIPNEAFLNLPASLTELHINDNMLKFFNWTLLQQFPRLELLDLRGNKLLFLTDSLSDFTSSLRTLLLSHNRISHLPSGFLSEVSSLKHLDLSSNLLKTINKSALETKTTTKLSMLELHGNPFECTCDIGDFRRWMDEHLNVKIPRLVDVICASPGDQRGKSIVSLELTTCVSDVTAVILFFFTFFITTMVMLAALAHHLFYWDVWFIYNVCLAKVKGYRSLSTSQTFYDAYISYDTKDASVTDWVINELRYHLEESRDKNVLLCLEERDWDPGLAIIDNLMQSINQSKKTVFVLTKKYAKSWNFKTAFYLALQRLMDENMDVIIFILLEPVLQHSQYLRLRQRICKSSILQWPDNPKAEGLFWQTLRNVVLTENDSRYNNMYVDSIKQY
Chain of human TLR9 (Q9NR96 26-1032): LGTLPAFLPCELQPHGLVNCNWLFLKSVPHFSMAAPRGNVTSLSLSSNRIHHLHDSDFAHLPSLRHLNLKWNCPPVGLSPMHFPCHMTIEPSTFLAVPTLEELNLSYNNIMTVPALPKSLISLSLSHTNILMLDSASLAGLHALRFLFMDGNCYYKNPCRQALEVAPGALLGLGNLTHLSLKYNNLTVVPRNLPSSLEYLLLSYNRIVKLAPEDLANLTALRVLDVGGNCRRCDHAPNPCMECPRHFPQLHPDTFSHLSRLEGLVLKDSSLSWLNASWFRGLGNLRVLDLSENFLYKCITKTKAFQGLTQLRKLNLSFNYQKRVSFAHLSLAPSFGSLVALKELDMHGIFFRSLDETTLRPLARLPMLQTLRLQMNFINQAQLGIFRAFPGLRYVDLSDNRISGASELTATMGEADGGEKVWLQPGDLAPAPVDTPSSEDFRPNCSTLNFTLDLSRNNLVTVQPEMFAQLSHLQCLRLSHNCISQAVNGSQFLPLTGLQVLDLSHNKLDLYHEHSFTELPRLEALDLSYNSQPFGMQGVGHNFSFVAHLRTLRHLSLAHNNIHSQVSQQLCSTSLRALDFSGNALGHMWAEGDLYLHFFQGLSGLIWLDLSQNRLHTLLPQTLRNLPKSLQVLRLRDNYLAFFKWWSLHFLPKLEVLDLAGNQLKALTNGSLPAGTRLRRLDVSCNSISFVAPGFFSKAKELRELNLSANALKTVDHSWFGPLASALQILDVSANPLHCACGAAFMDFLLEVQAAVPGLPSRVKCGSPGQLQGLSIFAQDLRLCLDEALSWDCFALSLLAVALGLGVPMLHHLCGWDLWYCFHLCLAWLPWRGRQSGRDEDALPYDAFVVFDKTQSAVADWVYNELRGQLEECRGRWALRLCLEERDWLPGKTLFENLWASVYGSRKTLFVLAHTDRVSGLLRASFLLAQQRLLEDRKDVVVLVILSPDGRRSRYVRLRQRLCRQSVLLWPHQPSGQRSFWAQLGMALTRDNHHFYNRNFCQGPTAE

| Compound | IC50 (human TLR7) | IC50 (human TLR8; [1]) | IC50 (human TLR9; [2]) | IC50 (human TLR8; [3]) | IC50 (human TLR9; [4]) |
| --- | --- | --- | --- | --- | --- |
| Cc1cc(-c2[nH]c3cnc(C4CCNCC4)c(F)c3c2C(C)C)cn2ncnc12 [Example 184] | 1.9 nM | 7.9 nM | 1870 nM |  |  |
| COc1cc(-c2[nH]c3cnc(C4CCC(N5CC6(COC6)C5)C4)cc3c2C(C)C)cn2ncnc12 (centres unmarked) [Example 209] | 29 nM | 97 nM | 1080 nM |  |  |
| COc1cc(-c2[nH]c3cnc(N4CCC(NC(C)C)CC4)c(C)c3c2C(C)C)cn2ncnc12 [Example 202] | 0.35 nM | 1.2 nM | 2460 nM |  |  |
| Cc1c(-c2[nH]c3cnc(C4CCC(NCC(C)(C)C)CC4)c(C)c3c2C(C)C)cn2ncnc2c1C (centres unmarked) [Example 247] | 16 nM | 10 nM | 718 nM |  |  |
| Cc1c(-c2[nH]c3cnc(N4CCN(S(C)(=O)=O)CC4)c(F)c3c2C(C)C)cn2ncnc2c1C [Example 425] | 13 nM | 17 nM | > 50000 nM |  |  |
| CCN(C)C1CCC(c2cc3c(C(C)C)c(-c4cc(OC)c5ncnn5c4)[nH]c3cn2)C1 (centres unmarked) [Example 249] | 12 nM | 12 nM | 1450 nM |  |  |
| COc1cc(-c2[nH]c3cnc(C4CCC(NC5COC5)C4)cc3c2C(C)C)cn2ncnc12 (centres unmarked) [Example 178] | 7 nM | 2.7 nM | 321 nM |  |  |
| Cc1cc(-c2[nH]c3cnc(C4CCC(NCC(C)(C)O)CC4)c(F)c3c2C(C)C)cn2ncnc12 (centres unmarked) [Example 49] | 0.46 nM | 0.62 nM | 2430 nM |  |  |
| CCN(C)C1CCN(c2ncc3[nH]c(-c4cc(C)c5ncnn5c4)c(C(C)C)c3c2C)CC1 [Example 235] | 0.24 nM | 1 nM | 2210 nM | 1 nM | 2210 nM |
| Cc1c(-c2[nH]c3cnc(N4CCN(CCS(C)(=O)=O)CC4)c(F)c3c2C(C)C)cn2ncnc2c1C [Example 398] | 7.2 nM | 1.9 nM | 46800 nM |  |  |
| COc1cc(-c2[nH]c3cnc(C4CCC(N5CC6(COC6)C5)C4)cc3c2C(C)C)cn2ncnc12 (centres unmarked) [Example 118] | 8.6 nM | 1.4 nM | 294 nM |  |  |
| Cc1c(-c2[nH]c3cnc(N4CCN(CC(C)C)C[C@H]4C)c(F)c3c2C(C)C)cn2ncnc2c1C [Example 460] | 10 nM |  |  | 4.4 nM | > 50000 nM |
| CNC(=O)CN1CCN(c2ncc3[nH]c(-c4cn5ncnc5c(C)c4C)c(C(C)C)c3c2F)[C@H](C)C1 [Example 465] | 8.5 nM |  |  | 3.1 nM | 47900 nM |
| COc1cc(-c2[nH]c3cnc(N4CCN(CC(C)C)C[C@H]4C)c(F)c3c2C(C)C)cn2ncnc12 [Example 453] | 16 nM |  |  | 34 nM | > 50000 nM |
| COc1cc(-c2[nH]c3cnc(N4CCN(C(=O)CN(C)C)C[C@H]4C)c(F)c3c2C(C)C)cn2ncnc12 [Example 439] | 7.1 nM | 4.3 nM | 11200 nM |  |  |
| CCN(C)C1CCC(c2ncc3[nH]c(-c4cc(C)c5ncnn5c4)c(C(C)C)c3c2F)CC1 (centres unmarked) [Example 163] | 0.39 nM | 0.87 nM | 1320 nM |  |  |
| Cc1c(-c2[nH]c3cnc(N4CCNCC4)c(F)c3c2C(C)C)cn2ncnc2c1C [Example 393] | 1.4 nM | 0.51 nM | 8730 nM |  |  |
| Cc1c(N2CCC(N3CCC3)CC2)ncc2[nH]c(-c3cc(C)c4ncnn4c3)c(C(C)C)c12 [Example 279] | 0.65 nM | 1.5 nM | 1110 nM |  |  |
| COc1cc(-c2[nH]c3cnc(C4CCC(NCC(C)(C)OC)C4)cc3c2C(C)C)cn2ncnc12 (centres unmarked) [Example 123] | 26 nM | 31 nM | 1110 nM |  |  |
| COc1cc(-c2[nH]c3cnc(C4CCC(NCC(C)(C)F)CC4)c(C)c3c2C(C)C)cn2ncnc12 (centres unmarked) [Example 244] | 8.9 nM | 16 nM | 583 nM |  |  |
| COc1cc(-c2[nH]c3cnc(N4CCC(N5CC6(COC6)C5)CC4)c(C)c3c2C(C)C)cn2ncnc12 [Example 139] | 1.1 nM | 1 nM | 1030 nM |  |  |

| Compound | IC50 (human TLR7) | IC50 (human TLR8; [1]) | IC50 (human TLR9; [2]) | IC50 (human TLR8; [3]) | IC50 (human TLR9; [4]) |
| --- | --- | --- | --- | --- | --- |
| CCN(C)C1CCC(c2ncc3[nH]c(-c4cc(OC)c5ncnn5c4)c(C(C)C)c3c2F)CC1 (centres unmarked) [Example 77] | 2.7 nM | 4.5 nM | 403 nM |  |  |
| Cc1c(-c2[nH]c3cnc(N4CCN(CC(=O)N(C)C)CC4)c(F)c3c2C(C)C)cn2ncnc2c1C [Example 428] | 12 nM | 1.1 nM | 39500 nM |  |  |
| CNCC(=O)N1CCN(c2ncc3[nH]c(-c4cc(OC)c5ncnn5c4)c(C(C)C)c3c2Cl)CC1 [Example 291] | 3 nM | 4.9 nM | 494 nM |  |  |
| Cc1c(-c2[nH]c3cnc(C4CCNCC4)c(F)c3c2C(C)C)cn2ncnc2c1C [Example 13] | 6.5 nM | 6.8 nM | 2780 nM |  |  |
| COCCN1CCC(c2ncc3[nH]c(-c4cc(OC)c5ncnn5c4)c(C(C)C)c3c2F)CC1 [Example 21] | 2 nM | 2.7 nM | 3340 nM |  |  |
| Cc1c(-c2[nH]c3cnc(C4CCN(CC(N)=O)CC4)cc3c2C(C)C)cn2ncnc2c1C [Example 23] | 2.6 nM | 3.4 nM | 147 nM |  |  |
| COc1cc(-c2[nH]c3cnc(C4CCN(C(C)C)CC4)c(F)c3c2C(C)C)cn2ncnc12 [Example 18] | 0.76 nM | 2.6 nM | 1790 nM |  |  |
| COc1cc(-c2[nH]c3cnc(C4CCN(C5COC5)CC4)c(F)c3c2C(C)C)cn2ncnc12 [Example 38] | 2.8 nM | 12 nM | 13100 nM |  |  |
| Cc1c(-c2[nH]c3cnc(C4CCC(NC[C@@H](F)C(C)(C)O)CC4)c(F)c3c2C(C)C)cn2ncnc2c1C (some centres unmarked) [Example 240] | 0.96 nM | 0.39 nM | 2780 nM |  |  |
| COc1cc(-c2[nH]c3cnc(C4CCC(N(CC#N)C5COC5)CC4)c(F)c3c2C(C)C)cn2ncnc12 (centres unmarked) [Example 114] | 4.8 nM | 6.6 nM | 17400 nM |  |  |
| CC(=O)N1CCN(c2ncc3[nH]c(-c4cn5ncnc5c(C)c4C)c(C(C)C)c3c2F)CC1 [Example 427] | 35 nM | 37 nM | > 50000 nM |  |  |
| COc1cc(-c2[nH]c3cnc(N4CCC(NC(C)C(C)C)CC4)cc3c2C(C)C)cn2ncnc12 (centres unmarked) [Example 313] | 2.9 nM | 0.27 nM | 2420 nM |  |  |
| CCN(C)C1CCC(c2ncc3[nH]c(-c4cn5ncnc5c(C)c4C)c(C(C)C)c3c2F)CC1 (centres unmarked) [Example 263] | 1.9 nM | 4.1 nM | 5650 nM |  |  |
| Cc1cc(-c2[nH]c3cnc(C4CCC(NCC(C)(C)O)CC4)c(F)c3c2C(C)C)cn2ncnc12 (centres unmarked) [Example 164] | 6.2 nM | 4.6 nM | 1800 nM |  |  |
| COc1cc(-c2[nH]c3cnc(C4CCC(NC(C)C)CC4)c(F)c3c2C(C)C)cn2ncnc12 (centres unmarked) [Example 159] | 3.4 nM | 4.5 nM | 455 nM |  |  |
| COc1cc(-c2[nH]c3cnc(N4CC5(CNC5)C4)c(F)c3c2C(C)C)cn2ncnc12 [Example 355, 6-(4-fluoro-3-isopropyl-5-(2,6-diazaspiro[3.3]heptan-2-yl)-1H-pyrrolo[2,3-c]pyridin-2-yl)-8-methoxy-[1,2,4]triazolo[1,5-a]pyridine] | 33 nM | 22 nM | 5590 nM |  |  |
| CNC(=O)CN(C)C1CCC(c2cc3c(C(C)C)c(-c4cc(OC)c5ncnn5c4)[nH]c3cn2)CC1 (centres unmarked) [Example 338] | 3.4 nM | 30 nM | 1110 nM |  |  |
| Cc1c(-c2[nH]c3cnc(N4CCN(CCS(C)(=O)=O)CC4)c(C)c3c2C(C)C)cn2ncnc2c1C [Example 415] | 26 nM | 5.2 nM | > 50000 nM |  |  |
| Cc1cc(-c2[nH]c3cnc(C4CCN(C5CCOCC5)CC4)c(F)c3c2C(C)C)cn2ncnc12 [Example 187] | 2.1 nM | 2 nM | 1530 nM |  |  |
| Cc1c(-c2[nH]c3cnc(N4CCN(C(C)C)C[C@H]4C)c(F)c3c2C(C)C)cn2ncnc2c1C [Example 461] | 5.4 nM |  |  | 1.5 nM | 9020 nM |
